Data taken from patent publication US8815585B2, “Automated method and apparatus for embryonic stem cell culture” (Cellular Dynamics International, Inc., priority 2007, dated 2014).
Entries after “also recorded” stand apart in the source; their conditions may differ.

How the values were obtained:
HES cells [1] = assay: Seeding and colony formation of individualized HES cells in 96-well plates; format: cell-based, human
Text: For this purpose however the inventors plated 16,000 cells per well, which is a 5-fold higher seeding density, than in the regular propagation and maintenance of undifferentiated HES cells with the automated procedure.

HES cells [2] = assay: Survival of HES cells after trypsin treatment, individualized and seeded in TeSR medium; format: cell-based, human; settings: 0.1% trypsin; seeding onto Matrigel coated plates in TeSR medium
Text: The inventors utilized the system described in Example 1 and developed procedures for passaging of HES cells that were based on simple liquid handling protocols. Recent innovations in splitting techniques allowed for efficient automation of this otherwise demanding manual procedure. Since HES cells require cell-cell contacts for survival in TeSR media, they needed to be seeded in clumps which required scraping of attached cells, a procedure which would be very hard to automate.
For automated passaging, the following procedure was developed: After retrieval of the mother plate from the incubator, the wash tool removes the spent media as described in aim 1. The 8-channel 200 μl pipetting tool MP200 is used to add […] of trypsin (0.1%). […] The cells are washed off the plate surface and mixed using the 8-channel MP200 tool by repetitive dispensing and aspiration. Cells are then dispensed to the daughter plates using the MP200 tool. The cells are then seeded 1 to 32 onto precoated Matrigel plates loaded from the stacker to the Biomek2000. […] The total surface area of the initially used Omnitray turned out to be too large for the throughput of the system at the stage of the next split once the inventors tested methods for passaging HES cells in aim 2. […]

HES cells [3] = settings: Watanabe et al. Nat Biotech (2007); cited from earlier work

Compound	seeding of individualized HES cells in 96-well plates (HES cells [1]; 96-well plates)	colony formation of HES cells from individualized cells (HES cells [1]; TeSR1 media)	survival of HES cells after trypsin treatment (HES cells [2])	ability to maintain HES cell growth (HES cells [3])
Cc1cncc2cccc(S(=O)(=O)N3CCCNCC3C)c12 (stereo in doubt) [H-1152, (S)-(+)-2-Methyl-1-[(4-methyl-5-isoquinolinyl)sulfonyl]homopiperazine]	allows for very efficient seeding of individualized HES cells in 96-well plates; also recorded: allows for very efficient seeding of individualized human ES cells in 96-well plates	actively increased colony formation	allow the survival of HES cells after trypsin treatment	
O=S(=O)(c1cccc2cnccc12)N1CCNCC1 [HA-100]			allow the survival of HES cells after trypsin treatment	supports the ability of HA-100 to maintain HES cell growth
